{"source": "patent US9266829B2", "about": "“Quinone compounds and their uses for the treatment of cancer” (Onco-NX Limited, priority 2012, dated 2016)", "key": {"physchem [1]": {"assay": "physchem"}, "H460 NSCLC": {"tested_on": "H460 NSCLC", "assay": "In vivo hollow fibre assay, H460", "conditions": "i.p. dosing days 3-6, nude mice", "description": "The activity of Es5 (4.65) was evaluated in vivo against 3 cancer cell lines H460, MDA-MB-468-NQ01 and MDA-MB-468-MOCK using the in vivo hollow fibre assay (HFA), with fibres implanted at both intraperitoneal (i.p.) and subcutaneous (s.c.) sites. Es5 and the control agent Doxorubicin were administered as multiple doses by intraperitoneal injection (i.p.) on days 3, 4, 5 & 6 at 0.5 mg/kg/day and 2.5 mg/kg/day respectively.\nThree human tumour cell lines were selected for analysis: H460 NSCLC (from ICT) and two breast carcinoma lines MDA-MB-468-NQ01 and MDA-MB-468-MOCK (both supplied by Onco-NX). Cells were cultured in RPMI 1640 cell culture medium supplemented with 1 mM sodium pyruvate, 2 mM L-glutamine and 10% foetal bovine serum (all from Sigma), and maintained as monolayer cultures at 37° C. in a humidified 5% CO2 environment.\nFemale Balb/C immunodeficient nude mice aged 6-8 weeks were used (Harlan UK, Blackthorn, UK). Mice were kept in cages housed in isolation cabinets in an air-conditioned room with regular alternating cycles of light and darkness. They received Teklad 2018 diet (Harlan, Blackthorn, UK) and water ad libitum. All animal procedures were carried out under a project licence issued by the UK Home Office and UKCCCR guidelines were followed throughout.\nCells were loaded into sterilised colour-coded PVDF Spectra/Por hollow fibres (HF) (Spectrum Medical Inc, Houston, Tex., USA). Briefly cells were harvested and resuspended in cell culture medium at the required cell density. This preparation was then loaded into the HF and the ends were clamped and heat-sealed. […]\nMice were sacrificed on day 7 post-implantation, fibres removed, and cell survival analysed using a modified MTT assay, comparing absorbances seen for the treated groups with the corresponding untreated control group. […]"}, "physchem [2]": {"assay": "physchem", "assay_type": "physicochemical", "description": "The stability of esters and their hydrolysis products was measured in solution. (50 μM Es5 in Tris buffer (0.1 mol dm^−3) at pH 7.4). Samples were taken at timed intervals up to 24 hours and analysed by HPLC. The detection wavelength was 330 nm. Chromatographic analysis was carried out by isocratic elution with 30:70 MeOH: Tris buffer (0.1 mol dm^−3, pH 7.4), at 1 ml min^−1. The chromatographic separation of the drug was achieved using a Hypersil ODS column with 250 mm×4.6 mm I.D."}, "MDA NQ01": {"tested_on": "MDA NQ01", "assay": "IC50 by MTT assay on NQ01 cells", "assay_type": "cell-based, human"}}, "note": "pIC50: −log10 of the molar value."}
{"compound": "CC(=O)OCCCC1=C(N2CC2)C(=O)C(C)=C(N2CC2)C1=O", "note": "[Es5, Acetic Acid 3-(2,5-bis-aziridin-1-yl-4-methyl-3,6-dioxo-cyclohexa-1,4-dienyl)-propyl ester]", "values": [{"measurement": "solubility", "setting": "physchem [1]; aqueous buffer", "result": 150, "unit": "µg/mL"}, {"measurement": "solubility", "setting": "physchem [1]; organic solvent or mixture", "result": 9400, "unit": "µg/mL"}, {"measurement": "cell survival compared to the untreated control, H460, i.p. site", "setting": "H460 NSCLC; fibres at i.p. site, p<0.01", "result": "significant efficacy"}, {"measurement": "cell survival compared to the untreated control, H460, s.c. site", "setting": "H460 NSCLC; fibres at s.c. site", "result": "significant efficacy"}, {"measurement": "more stable than other esters based on RH1", "setting": "physchem [2]", "result": "> 20", "unit": "times"}, {"measurement": "half-life at 50 μM", "setting": "physchem [2]; buffer, pH 7.4", "result": "> 24", "unit": "h"}, {"measurement": "pIC50", "setting": "MDA NQ01; Homo sapiens, MTT assay", "result": 9.64}, {"measurement": "selectivity towards cells that express DT-diaphorase", "setting": "MDA NQ01; IC50 values, MTT assay", "result": "excellent selectivity"}, {"measurement": "MDA468 to NQ01 differential", "setting": "MDA NQ01; ratio of IC50 values", "result": "> 80", "unit": "fold"}]}
